Measurements published in US20250368961A1, “Medium for producing a bile canaliculus and method for producing a bile canaliculus using the same” (INSTITUTE OF SCIENCE TOKYO, priority 2024, published 2025).

Legend:
hepatocytes [1] = assay: Effectiveness of different K-Ras activating agents in bile canaliculi formation; format: cell-based, human; details: normal culture, Day 4; agent added to medium of the instant invention without OsM
Description: (§1) The frozen stock of human primary-cultured hepatocytes (PHHs) was thawed using commercially available thawing medium, and cell number was counted using trypan blue. To a 96-well plate coated with collagen I, PHHs were plated at 1.0×10^5 cells/well seeding density, using the medium of the instant invention, commercial medium A, commercial medium B, and commercial medium C such that the medium volume was 75 μL/well, and cultured at 37° C. under 5% CO2 condition. Four hours, 1 day, 2 days, and 4 days after seeding, the total amount of medium was replaced using each medium such that the medium volume was 75 μL/well, and the plate was cultured until Day 7 of culture.
Two types of media were used as controls: the medium of the instant invention without OsM (a negative control), and the medium of the instant invention (a positive control), and four more types of media were prepared based on the negative control to which a K-Ras activating agent other than OsM (IL-6, LIF, CNTF or Ras-GRF) was added (six types of media in total). Each medium was used for carrying out normal culture, and on culture Day 4 the medium was removed and 4 μmol/L CDFDA solution was added at 100 μL/well. The culture was incubated in a CO2 incubator (5% CO2, 37° C.) for 10 minutes, and observed using fluorescence microscopy.

hepatocytes [2] = assay: Effect of each medium component on bile canaliculi formation (component removal); format: cell-based, human; details: normal culture, Day 4; named component removed from the medium of the instant invention
Description: as §1
Eight types of media in total: the medium of the instant invention, and media prepared by removing the main six components (HGF, OsM, DEX, Frk, DMSO, S-220) from the medium of the instant invention (in some case, 2 components were removed), were prepared, and each was used for performing normal culture. Phase contrast microscopy was performed on Day 4 of culture. […] Thereafter, the culture was washed three times with HBSS (+), the medium for each condition was added at 75 μL/well, then the culture was incubated in CO2 incubator (5% CO2, 37° C.) for 10 minutes and observed by fluorescence microscopy.

For “IL-6: IL-6 family cytokine, K-Ras activating agent other than OsM”, the “level of accumulation of CDFDA relative to OsM (positive control)” value (hepatocytes [1]) was “comparable level of accumulation of CDFDA”.
For oncostatin M [OsM], the “accumulation of CDFDA in bile canaliculi (fluorescence microscopy image)” value (hepatocytes [2]) was “almost no accumulation of CDFDA in the bile canaliculi” and the “boundaries between cells (phase contrast microscope image)” value (hepatocytes [2]) was “boundaries between cells could hardly be observed”.
